Measurements as given in ChEMBL document CHEMBL1201862, “PubChem BioAssay data set” (2004).
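Grown in 96-well plates, cells were treated for 48 hours with each compound at five concentrations. Insufficient inhibition: endpoint recorded as highest concentration tested. The concentration for 50% growth inhibition is given as GI50.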 Active and inactive are the calls of the source. Cut-off read from the data, not from the text of the source: active = GI50 up to about 1.1 µM and inactive = higher.

Key:
Assay in all cases: inhibition of tumour cell growth, NCI panel, 48 h
A549 = system: A549
COLO 205 = system: COLO 205
EKVX = system: EKVX
HCT-15 = system: HCT-15
HOP-62 = system: HOP-62
HT-29 = system: HT-29
IGROV-1 = system: IGROV-1
LOX IMVI = system: LOX IMVI
Malme-3M = system: Malme-3M
NCI-H23 = system: NCI-H23
NCI-H460 = system: NCI-H460
OVCAR-4 = system: OVCAR-4
SF-295 = system: SF-295
SK-MEL-28 = system: SK-MEL-28
SK-MEL-2 = system: SK-MEL-2
SK-MEL-5 = system: SK-MEL-5
SK-OV-3 = system: SK-OV-3
SNB-75 = system: SNB-75
U-251 = system: U-251
SF-539 = system: SF-539

In the case of `CCOC(=O)c1csc(NC(=O)CN2CCN(C)CC2)n1`, the GI50 (A549) is reported as > 100 µM (inactive), the GI50 (COLO 205) is reported as > 100 µM (inactive) and the GI50 (EKVX) is reported as > 100 µM (inactive). The GI50 (HCT-15) was > 100 µM, the GI50 (HOP-62) was > 100 µM (inactive) and the GI50 (HT-29) was > 100 µM (inactive). The GI50 (IGROV-1) was > 100 µM (inactive), the GI50 (LOX IMVI) was > 100 µM (inactive) and the GI50 (Malme-3M) was > 100 µM (inactive). For the same compound, the GI50 (NCI-H23) was > 100 µM (inactive), the GI50 (NCI-H460) was > 100 µM (inactive) and the GI50 (OVCAR-4) was > 100 µM (inactive). For the same compound, the GI50 (SF-295) was > 100 µM (inactive), the GI50 (SK-MEL-28) was > 100 µM (inactive) and the GI50 (SK-MEL-2) was > 100 µM (inactive). For the same compound, the GI50 (SK-MEL-5) was > 100 µM (inactive), the GI50 (SK-OV-3) was > 100 µM (inactive) and the GI50 (SNB-75) was > 100 µM (inactive). The GI50 (U-251) was > 100 µM (inactive).
In the case of `CCOc1ccc(/N=N/c2ccc3oc(=O)c(/C(C)=N\NC(=O)CC(=O)Nc4ccc(Cl)cc4)cc3c2)cc1`, the GI50 (A549) is reported as 20.7 µM (inactive), the GI50 (COLO 205) is reported as 30.5 µM (inactive) and the GI50 (EKVX) is reported as 8.36 µM (inactive). The GI50 (HCT-15) was 6.25 µM, the GI50 (HOP-62) was 17.6 µM (inactive) and the GI50 (IGROV-1) was 22 µM (inactive). For the same compound, the GI50 (LOX IMVI) was 13.2 µM (inactive), the GI50 (Malme-3M) was 16 µM (inactive) and the GI50 (NCI-H23) was 18.7 µM (inactive). The GI50 (OVCAR-4) was 20.4 µM (inactive), the GI50 (SF-295) was 16.5 µM (inactive) and the GI50 (SF-539) was 17.5 µM (inactive). The GI50 (SK-MEL-28) was 36.1 µM (inactive), the GI50 (SK-MEL-2) was 3.43 µM (inactive) and the GI50 (SK-MEL-5) was 14.3 µM (inactive). The GI50 (SK-OV-3) was 19.9 µM (inactive) and the GI50 (U-251) was 16.4 µM (inactive).
With `CC(O)=C1C(=O)CCC1=O` the GI50 (A549) was > 100 µM (inactive), the GI50 (COLO 205) was > 100 µM (inactive) and the GI50 (EKVX) was > 100 µM (inactive). The GI50 (HOP-62) was > 100 µM (inactive), the GI50 (HT-29) was > 100 µM (inactive) and the GI50 (IGROV-1) was > 100 µM (inactive). For the same compound, the GI50 (LOX IMVI) was > 100 µM (inactive), the GI50 (Malme-3M) was > 100 µM (inactive) and the GI50 (NCI-H23) was > 100 µM (inactive). The GI50 (NCI-H460) was > 100 µM (inactive), the GI50 (OVCAR-4) was > 100 µM (inactive) and the GI50 (SF-295) was > 100 µM (inactive). The GI50 (SF-539) was > 100 µM (inactive), the GI50 (SK-MEL-28) was > 100 µM (inactive) and the GI50 (SK-MEL-2) was > 100 µM (inactive). For the same compound, the GI50 (SK-MEL-5) was > 100 µM (inactive), the GI50 (SK-OV-3) was > 100 µM (inactive) and the GI50 (SNB-75) was > 100 µM (inactive). The GI50 (U-251) was > 100 µM (inactive).
In the case of `CC(C)OP(=O)(OC(C)C)c1c(N)n[nH]c1Nc1ccccc1`, the GI50 (A549) is reported as > 100 µM (inactive), the GI50 (COLO 205) is reported as > 100 µM (inactive) and the GI50 (EKVX) is reported as > 100 µM (inactive). The GI50 (HCT-15) was > 100 µM, the GI50 (HOP-62) was > 100 µM (inactive) and the GI50 (HT-29) was > 100 µM (inactive). For the same compound, the GI50 (IGROV-1) was > 100 µM (inactive), the GI50 (LOX IMVI) was > 100 µM (inactive) and the GI50 (Malme-3M) was > 100 µM (inactive). The GI50 (NCI-H23) was > 100 µM (inactive), the GI50 (NCI-H460) was > 100 µM (inactive) and the GI50 (OVCAR-4) was > 100 µM (inactive). The GI50 (SF-295) was > 100 µM (inactive), the GI50 (SF-539) was > 100 µM (inactive) and the GI50 (SK-MEL-28) was > 100 µM (inactive). For the same compound, the GI50 (SK-MEL-2) was > 100 µM (inactive), the GI50 (SK-MEL-5) was > 100 µM (inactive) and the GI50 (SK-OV-3) was > 100 µM (inactive). For the same compound, the GI50 (SNB-75) was > 100 µM (inactive) and the GI50 (U-251) was > 100 µM (inactive).
With `CN1CCC23c4ccccc4NC1C21CCN(C)C3Nc2ccccc21` the GI50 (A549) was > 375 µM (inactive), the GI50 (COLO 205) was > 338 µM (inactive) and the GI50 (EKVX) was > 294 µM (inactive). For the same compound, the GI50 (HCT-15) was > 375 µM, the GI50 (HOP-62) was > 375 µM (inactive) and the GI50 (HT-29) was > 375 µM (inactive). For the same compound, the GI50 (IGROV-1) was > 375 µM (inactive), the GI50 (LOX IMVI) was > 375 µM (inactive) and the GI50 (Malme-3M) was 249 µM (inactive). The GI50 (NCI-H23) was > 375 µM (inactive), the GI50 (NCI-H460) was > 375 µM (inactive) and the GI50 (OVCAR-4) was > 375 µM (inactive). The GI50 (SF-295) was > 375 µM (inactive), the GI50 (SF-539) was > 355 µM (inactive) and the GI50 (SK-MEL-28) was > 375 µM (inactive). For the same compound, the GI50 (SK-MEL-2) was > 375 µM (inactive), the GI50 (SK-MEL-5) was > 174 µM (inactive) and the GI50 (SK-OV-3) was > 375 µM (inactive). The GI50 (SNB-75) was > 303 µM (inactive) and the GI50 (U-251) was > 375 µM (inactive).
`CC(=O)Oc1cc2c(cc1OC(C)=O)OCC(c1ccc(C)cc1)C2` (stereo not given) was tested, and the GI50 (A549) was 16 µM (inactive), the GI50 (COLO 205) was 20.5 µM (inactive) and the GI50 (EKVX) was 23.4 µM (inactive). The GI50 (HCT-15) was 19.6 µM, the GI50 (HOP-62) was 20.5 µM (inactive) and the GI50 (HT-29) was 29.2 µM (inactive). For the same compound, the GI50 (IGROV-1) was 20.3 µM (inactive), the GI50 (LOX IMVI) was 18.7 µM (inactive) and the GI50 (Malme-3M) was 19 µM (inactive). For the same compound, the GI50 (NCI-H23) was 15.9 µM (inactive), the GI50 (NCI-H460) was 15.1 µM (inactive) and the GI50 (OVCAR-4) was 13 µM (inactive). For the same compound, the GI50 (SF-295) was 28.7 µM (inactive), the GI50 (SF-539) was 19.5 µM (inactive) and the GI50 (SK-MEL-28) was 20 µM (inactive). The GI50 (SK-MEL-2) was 20 µM (inactive), the GI50 (SK-MEL-5) was 6.12 µM (inactive) and the GI50 (SK-OV-3) was 53.7 µM (inactive). For the same compound, the GI50 (SNB-75) was 9.42 µM (inactive) and the GI50 (U-251) was 9.91 µM (inactive).
With `COc1ccc(N2C(=O)C3c4[nH]c5ccccc5c4C4CCCCCCCCCC4C3C2=O)cc1` (stereo not given) the GI50 (A549) was > 10 µM (inactive), the GI50 (COLO 205) was > 10 µM (inactive) and the GI50 (EKVX) was > 10 µM (inactive). For the same compound, the GI50 (HCT-15) was > 10 µM, the GI50 (HOP-62) was > 10 µM (inactive) and the GI50 (HT-29) was > 10 µM (inactive). The GI50 (IGROV-1) was > 10 µM (inactive), the GI50 (LOX IMVI) was > 10 µM (inactive) and the GI50 (Malme-3M) was > 10 µM (inactive). For the same compound, the GI50 (NCI-H23) was > 10 µM (inactive), the GI50 (NCI-H460) was > 10 µM (inactive) and the GI50 (OVCAR-4) was > 10 µM (inactive). For the same compound, the GI50 (SF-295) was > 10 µM (inactive), the GI50 (SF-539) was 7.28 µM (inactive) and the GI50 (SK-MEL-28) was > 10 µM (inactive). For the same compound, the GI50 (SK-MEL-2) was > 10 µM (inactive), the GI50 (SK-MEL-5) was > 10 µM (inactive) and the GI50 (SK-OV-3) was > 10 µM (inactive). The GI50 (SNB-75) was > 10 µM (inactive) and the GI50 (U-251) was > 10 µM (inactive).
